Here are results for 22 compounds from patent publication US20260184697A1, “EZH1/2 INHIBITOR, PREPARATION THEREOF, AND USE THEREOF IN ANTI-TUMOR THERAPY” (JIANGSU TASLY DIYI PHARMACEUTICAL CO., LTD., priority 2022, published 2026).

One assay has as its target T1, EZH2/SUZ/EED (Homo sapiens, UniProt O75530+Q15022+Q15910).
T1 construct: purchased BPS 51003
Briefly: Inhibitory effect on EZH2 by the MTase-Glo method (Test Example 1). It is filed as biochemical. The following applies: EZH2/SUZ/EED 6.25 nM, H3 peptide 10 μM, SAM 3 μM, 30° C. 3 h, read-out: Test Example 1 WT EZH2 IC50. Here is the method: (§1) The compound was dissolved in DMSO, and the compound was serially diluted using ECHO665 and transferred to a 384-well reaction plate (Corning, 3824). A sample containing only DMSO was added as a positive control (maximum signal control) and a negative control (minimum signal control), while ensuring that the final DMSO content in each reaction well was 0.5%. The protein was configured in reaction buffer (50 mM Bicine, 0.01% Triton X-100, 1 mM DTT, 0.01% BSA, pH 7.6), such that the final reaction concentrations of EZH2/SUZ/EED (BPS, 51003) protein solution and EZH1/SUZ/EED (BPS, 51006) were 6.25 nM and 25 nM, respectively. The negative control (minimum signal control) used an equal amount of buffer instead of protein solution. The prepared protein solution was added to the 384-well reaction plate and pre-incubated at room temperature for 15 minutes. The mixture of the substrate H3 peptide fragment (custom-synthesized by GenScript, biotinylated Histone H3(21-44) peptide ([…]-GG-K(Biotin)-OH)) prepared in the reaction buffer and SAM (Promega, V7601) was added into the 384-well plate, such that the final reaction concentration of H3 peptide fragment was 10 μM, and the final concentration of SAM was 3 μM. The mixture was centrifuged at 1000 rpm for 1 min. The 384-well reaction plate was placed in a constant temperature shaker and incubate at 30° C. for 3 h at a speed of 300 rpm. Then the detection reagent was added according to the experimental process of the kit MTase-Glo (Promega, V7601) and incubated.
(§2) After incubation, read with BMG PHERAStar. The luminescence signals obtained by positive control (maximum signal control) and negative control (minimum signal control) were normalized to obtain the inhibition rate of different concentrations of compounds. Then, the IC50 of the compound on the enzyme activity inhibition was calculated by GraphPad Prism 6 with log(inhibitor) vs. response-Variable slope model fitting. The fitting equation is: Y=Bottom+(Top−Bottom)/(1+10^((Log IC50−X)*HillSlope)), wherein Y represents the known percentage remaining enzyme activity, and X represents the known activity after Log compound concentration.

The next assay addresses T2, EZH1/SUZ/EED (Homo sapiens, UniProt O75530+Q15022+Q92800).
T2 construct: purchased BPS 51006
Briefly: Inhibitory effect on EZH1 by the MTase-Glo method (Test Example 1). Particulars: EZH1/SUZ/EED 25 nM, H3 peptide 10 μM, SAM 3 μM, 30° C. 3 h, read-out: Test Example 1 WT EZH1 IC50. The format is biochemical. Here is the method:
as §1, §2

T2 sequence (Q92800 2-747 limits assumed): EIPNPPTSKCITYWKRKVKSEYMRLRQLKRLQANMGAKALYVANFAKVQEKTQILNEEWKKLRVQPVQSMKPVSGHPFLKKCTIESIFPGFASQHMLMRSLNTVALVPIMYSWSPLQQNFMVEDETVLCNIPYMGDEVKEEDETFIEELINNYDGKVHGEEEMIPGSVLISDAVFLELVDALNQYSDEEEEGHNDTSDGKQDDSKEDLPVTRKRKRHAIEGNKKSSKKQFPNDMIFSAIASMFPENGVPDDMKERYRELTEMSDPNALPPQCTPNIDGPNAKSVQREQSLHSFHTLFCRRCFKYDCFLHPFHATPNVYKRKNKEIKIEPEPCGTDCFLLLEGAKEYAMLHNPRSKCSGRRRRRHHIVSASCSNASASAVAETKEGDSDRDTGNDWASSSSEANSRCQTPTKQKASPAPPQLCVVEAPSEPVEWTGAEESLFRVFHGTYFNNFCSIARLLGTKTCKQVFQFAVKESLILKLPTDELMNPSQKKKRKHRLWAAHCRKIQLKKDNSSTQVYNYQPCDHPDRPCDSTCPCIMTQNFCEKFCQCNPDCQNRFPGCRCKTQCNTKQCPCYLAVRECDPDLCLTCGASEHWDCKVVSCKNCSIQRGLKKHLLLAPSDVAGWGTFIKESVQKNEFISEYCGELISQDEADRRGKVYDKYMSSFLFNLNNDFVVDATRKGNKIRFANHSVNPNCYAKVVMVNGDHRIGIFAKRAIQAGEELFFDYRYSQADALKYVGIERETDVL
T2 sequence (Q15022 2-739 partner limits assumed): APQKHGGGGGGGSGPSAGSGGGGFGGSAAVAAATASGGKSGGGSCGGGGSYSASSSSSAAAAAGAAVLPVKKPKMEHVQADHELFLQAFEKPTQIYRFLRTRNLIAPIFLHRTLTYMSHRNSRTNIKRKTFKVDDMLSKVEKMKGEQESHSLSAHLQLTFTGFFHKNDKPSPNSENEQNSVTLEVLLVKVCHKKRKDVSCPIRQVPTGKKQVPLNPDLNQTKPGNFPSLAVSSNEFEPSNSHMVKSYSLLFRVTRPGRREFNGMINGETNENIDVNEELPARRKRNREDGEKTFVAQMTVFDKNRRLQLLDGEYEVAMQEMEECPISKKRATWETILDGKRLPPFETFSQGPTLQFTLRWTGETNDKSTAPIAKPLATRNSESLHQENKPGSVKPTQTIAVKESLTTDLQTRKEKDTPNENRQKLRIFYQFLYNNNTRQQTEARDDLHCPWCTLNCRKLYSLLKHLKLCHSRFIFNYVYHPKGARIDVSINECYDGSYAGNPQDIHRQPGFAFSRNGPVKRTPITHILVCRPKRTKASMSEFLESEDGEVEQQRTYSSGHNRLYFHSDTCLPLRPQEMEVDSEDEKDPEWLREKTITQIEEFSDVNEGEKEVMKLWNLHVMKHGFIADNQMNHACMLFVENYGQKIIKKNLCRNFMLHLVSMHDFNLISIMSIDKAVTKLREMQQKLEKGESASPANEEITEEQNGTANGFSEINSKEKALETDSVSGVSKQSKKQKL
T2 sequence (O75530 2-441 partner limits assumed): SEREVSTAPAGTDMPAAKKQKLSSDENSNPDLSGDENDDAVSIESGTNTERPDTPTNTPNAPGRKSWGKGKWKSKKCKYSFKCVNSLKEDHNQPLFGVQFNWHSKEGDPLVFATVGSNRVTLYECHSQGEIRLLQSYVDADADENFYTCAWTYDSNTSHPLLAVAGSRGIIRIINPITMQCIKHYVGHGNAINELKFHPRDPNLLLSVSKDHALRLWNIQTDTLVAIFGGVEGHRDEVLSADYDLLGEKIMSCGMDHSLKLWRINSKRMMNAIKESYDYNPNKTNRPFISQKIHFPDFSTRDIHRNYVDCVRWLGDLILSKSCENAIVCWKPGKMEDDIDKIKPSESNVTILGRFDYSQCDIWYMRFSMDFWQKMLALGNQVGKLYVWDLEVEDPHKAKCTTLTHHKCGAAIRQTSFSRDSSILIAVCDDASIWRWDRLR
T1 sequence (Q15910 2-746 limits assumed): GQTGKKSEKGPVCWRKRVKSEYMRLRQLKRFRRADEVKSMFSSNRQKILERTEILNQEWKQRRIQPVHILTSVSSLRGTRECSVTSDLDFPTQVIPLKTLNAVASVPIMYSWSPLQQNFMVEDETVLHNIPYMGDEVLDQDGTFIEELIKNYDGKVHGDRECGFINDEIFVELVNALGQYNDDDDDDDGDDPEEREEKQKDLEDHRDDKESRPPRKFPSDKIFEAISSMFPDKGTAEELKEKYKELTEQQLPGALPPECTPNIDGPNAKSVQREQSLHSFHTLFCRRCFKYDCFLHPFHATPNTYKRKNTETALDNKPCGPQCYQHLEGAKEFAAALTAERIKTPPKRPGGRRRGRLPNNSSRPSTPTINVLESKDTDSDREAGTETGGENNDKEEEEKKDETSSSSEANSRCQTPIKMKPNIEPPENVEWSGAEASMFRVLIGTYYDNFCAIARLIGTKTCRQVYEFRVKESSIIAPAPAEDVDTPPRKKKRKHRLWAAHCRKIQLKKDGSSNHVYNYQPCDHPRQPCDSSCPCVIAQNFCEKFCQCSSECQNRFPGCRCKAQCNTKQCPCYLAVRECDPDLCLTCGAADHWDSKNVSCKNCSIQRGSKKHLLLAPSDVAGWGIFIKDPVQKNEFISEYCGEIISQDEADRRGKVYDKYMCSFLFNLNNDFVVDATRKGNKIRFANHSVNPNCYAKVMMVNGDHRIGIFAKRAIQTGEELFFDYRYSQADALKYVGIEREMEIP
T1 sequence (Q15022 2-739 partner limits assumed): as the sequence (Q15022 2-739 partner limits assumed) above
T1 sequence (O75530 2-441 partner limits assumed): as the sequence (O75530 2-441 partner limits assumed) above

With `CON(C)C1CCC(C2COc3c(Cl)cc(C(=O)NCc4c(C)cc(C)[nH]c4=O)c(C)c3O2)CC1` (single isomer, unassigned) [Compound 79], at EZH2/SUZ/EED, the IC50 (commonly the midpoint of a concentration-inhibition curve) was determined as 2 nM.

For the compound `Cc1cc(C)c(CNC(=O)c2ccc3c(c2C)COC(C)(C2CCC(N(C)C)CC2)O3)c(=O)[nH]1` (stereo not shown) [Compound 4], the concentration for half-maximal inhibition (IC50) at EZH2/SUZ/EED was found to be 7210 nM.

In the case of `CSc1cc(C)[nH]c(=O)c1CNC(=O)c1cc(Cl)c2c(c1C)O[C@@H]([C@H]1CC[C@H](N3CC(OC4CC4)C3)CC1)CO2` [Compound 10], at EZH2/SUZ/EED, the half-maximal inhibitory concentration (IC50) was 158 nM.

On to `CSc1cc(C)[nH]c(=O)c1CNC(=O)c1cc(Cl)c2c(c1C)O[C@H]([C@H]1CC[C@@H](N3CC(OC4CC4)C3)CC1)CO2` [Compound 13], for which the half-maximal inhibitory concentration (IC50) at EZH2/SUZ/EED was determined as 17.7 nM.

For the compound `COC1C2CN([C@H]3CC[C@H]([C@H]4COc5c(Cl)cc(C(=O)NCc6c(SC)cc(C)[nH]c6=O)c(C)c5O4)CC3)CC21` (stereo partly shown) [Compound 44], the half-inhibitory concentration (IC50) on EZH1/SUZ/EED turned out to be 13.5 nM.

`Cc1cc(C)c(CNC(=O)c2cc(Cl)c3c(c2C)OC(C2CCN(C(C)C)CC2)CO3)c(=O)[nH]1` (stereo not shown) [Compound 82]: the IC50 at EZH2/SUZ/EED was determined as 85.1 nM.

Turning to `Cc1cc(C)c(CNC(=O)c2cc(Cl)c3c(c2C)OC(C2CCN(CC4COC4)CC2)CO3)c(=O)[nH]1` (stereo not shown) [Compound 83], on EZH2/SUZ/EED, the IC50 amounted to 8.2 nM.

Regarding `Cc1cc(C)c(CNC(=O)c2cc(Cl)c3c(c2C)OC(C2CCN(C4COC4)CC2)CO3)c(=O)[nH]1` (stereo not shown) [Compound 84], the concentration for half-maximal inhibition (IC50) on EZH2/SUZ/EED was determined as 11 nM.

For `Cc1cc(C)c(CNC(=O)c2cc(Cl)c3c(c2C)O[C@H](C2CCN(CC4COC4)CC2)CO3)c(=O)[nH]1` [Compound 87], the IC50 on EZH2/SUZ/EED was 780 nM.

Turning to `Cc1cc(C)c(CNC(=O)c2cc(Cl)c3c(c2C)O[C@H](C2CCN(C4COC4)CC2)CO3)c(=O)[nH]1` [Compound 89], the IC50 at EZH2/SUZ/EED is 1840 nM.

`COc1cc(C)[nH]c(=O)c1CNC(=O)c1cc(Cl)c2c(c1C)O[C@H]([C@H]1CC[C@H](N3CC(OC)C3)CC1)CO2` [Compound 99]: on EZH2/SUZ/EED, the IC50 is 93.4 nM.

Consider `COc1cc(C)[nH]c(=O)c1CNC(=O)c1cc(Cl)c2c(c1C)O[C@H]([C@H]1CC[C@@H](N3CC(OC)C3)CC1)CO2` [Compound 100], for which, on EZH2/SUZ/EED, the half-inhibitory concentration (IC50) was determined as 128 nM.

Turning to `COc1cc(C)[nH]c(=O)c1CNC(=O)c1cc(Cl)c2c(c1C)O[C@@H]([C@H]1CC[C@H](N3CC4(CC4)C3)CC1)CO2` [Compound 112], the IC50 at EZH1/SUZ/EED is 49.9 nM.

With `COc1cc(C)[nH]c(=O)c1CNC(=O)c1cc(Cl)c2c(c1C)O[C@@H]([C@H]1CC[C@H](N3CC4CC4C3)CC1)CO2` (stereo partly shown) [Compound 114], the IC50 at EZH1/SUZ/EED worked out at 267 nM.

Regarding `COc1cc(C)[nH]c(=O)c1CNC(=O)c1cc(Cl)c2c(c1C)O[C@@H]([C@H]1CC[C@H](N3CC4C(C3)C4OC)CC1)CO2` (stereo partly shown) [Compound 116], the IC50 at EZH1/SUZ/EED was determined as 156 nM.

`COc1cc(C)[nH]c(=O)c1CNC(=O)c1cc(Cl)c2c(c1C)O[C@@H](C1CCC(OCCF)CC1)CO2` (stereo partly shown) [Compound 123]: on EZH1/SUZ/EED, the IC50 stood at 84 nM.

For the compound `Cc1cc(C)c(CN(C)C(=O)c2cc(Cl)c3c(c2C)O[C@@H]([C@H]2CC[C@@H](N(C)C)CC2)CO3)c(=O)[nH]1` [Compound 127], the 50% inhibitory concentration (IC50) on EZH2/SUZ/EED stood at 25.5 nM.

On to `COc1cc(C)[nH]c(=O)c1CN(C)C(=O)c1cc(Cl)c2c(c1C)O[C@@H]([C@H]1CC[C@@H](N(C)C)CC1)CO2` [Compound 129], for which, on EZH2/SUZ/EED, the concentration for half-maximal inhibition (IC50) stood at 3.9 nM.

`COc1cc(C)[nH]c(=O)c1CNC(=O)c1cc(Cl)c2c(c1Cl)O[C@@H]([C@H]1CC[C@H](N3CC(OC)C3)CC1)CO2` [Compound 152]: the IC50 on EZH1/SUZ/EED was determined as 126 nM.

Regarding `Cc1cc(C2CC2)c(CNC(=O)c2cc(Cl)c3c(c2C)O[C@@H]([C@H]2CC[C@@H](N(C)C)CC2)CO3)c(=O)[nH]1` [Compound 157], on EZH1/SUZ/EED, the IC50 was 190 nM.

As to `Cc1cc(C2CC2)c(CNC(=O)c2cc(Cl)c3c(c2C)O[C@@H]([C@H]2CC[C@H](N(C)C)CC2)CO3)c(=O)[nH]1` [Compound 158], the IC50 at EZH1/SUZ/EED is 3440 nM.

Take `CSc1cc(C)[nH]c(=O)c1CNC(=O)c1cc(C#N)c2c(c1C)O[C@@H]([C@H]1CC[C@H](N3CC(OC4CC4)C3)CC1)CO2` [Compound 160]: at EZH1/SUZ/EED, the half-inhibitory concentration (IC50) was found to be 31.6 nM.
